Measured values taken from paper PMC5856786, “A DHODH inhibitor increases p53 synthesis and enhances tumor cell killing by p53 degradation blockage” (Nature Communications, 2018).

Key:
ARN8 cells = assay: PI flow cytometry, sub-G1 cells, ARN8; assay type: cell-based, human; conditions: ARN8 72 h
Procedure: (§1) Cell cycle distribution analysis was performed on a Becton Dickinson FACScan flow cytometer or FACSCalibur (BD Biosciences) following staining with propidium iodide (PI) or dual labeling with BrdU and PI[36]. These assays were analyzed using CellQuest Pro (BD Biosciences).

HNDF cells = assay: PI flow cytometry, sub-G1 cells, HNDF; assay type: cell-based, human; conditions: DMSO 72 h + 48 h, 2 μM nutlin-3a last 48 h
Procedure: as §1

[1] = Pharmacokinetic study, nutlin-3a single or co-administered with (R)-HZ05; assay type: in vivo, NOD-SCID mice; conditions: mice; nutlin-3a 50 mg kg-1 oral + (R)-HZ05 75 mg kg-1 s.c.
Procedure: collected from the retro-orbital plexus of three mice per group per time point at the following times: pre-dose, 0.08, 0.25, 0.5, 1, 2, 4, 8, and 24 h. Samples were collected into tubes with 20 % potassium-EDTA solution. Plasma was separated at 4000 rpm for 10 minutes at 4 °C and stored at -70 °C until analysis. 25 µL of study sample or spiked plasma calibration standards were added to individual tubes followed by 100 µL of Glipizide at 500 ng mL-1 as an internal standard. Samples were centrifuged at 4000 rpm at 4 °C for 10 minutes. 100 µL of cleared supernatant was transferred to 96-well plates and analyzed using a Waters ACQUITY UPLC connected to an AB Sciex API 4000 QTRAP in MRM mode with positive electrospray ionization with an ion spray voltage of 5500 V. The mobile phase was A: 0.1 % formic acid in acetonitrile and B: 0.1 % formic acid in water through a phenomenex Kinetex EVO C18 (5 µm, 100 × 4.6 mm) kept at 45 °C. […]
Samples were centrifuged at 4000 rpm at 4 °C for 10 minutes. 100 µL of cleared supernatant was transferred to 96-well plates and analyzed using a Waters ACQUITY UPLC connected to an AB Sciex API 4000 QTRAP in MRM mode with positive electrospray ionization with an ion spray voltage of 5500 V. The mobile phase was A: 0.1 % formic acid in acetonitrile and B: 0.1 % formic acid in water through a phenomenex Kinetex EVO C18 (5 µm, 100 × 4.6 mm) kept at 45 °C. […]

MV411 cells = assay: PI flow cytometry, sub-G1 cells, MV411; assay type: cell-based; conditions: DMSO 72 h + 48 h, 2 μM nutlin-3a last 48 h
Procedure: as §1

ARN8 xenograft = assay: ARN8 subcutaneous xenograft; assay type: in vivo; conditions: ARN8 xenograft; (R)-HZ05 75 mg/kg q.d. s.c. or nutlin-3a 50 mg/kg b.i.d. orally
Procedure: All animal xenograft experiments were approved by the Norwegian Animal Research Authority and conducted according to The European Convention for the Protection of Vertebrates Used for Scientific Purposes. […] The health status and weight of the mice were monitored daily and they were randomized in a non-blinded manner into 4 groups when tumor volumes reached 30–40 mm^3. […] Tumor volumes were measured every second day by a digital caliper using the following ellipsoid formula: Volume = π (length × width × height)/6.
To determine the efficacy of (R)-HZ05 in combination with nutlin-3a, 4 groups of NSG mice (n = 8 per group) were subcutaneously injected in the flank region with a single 100 μL injection of 2 × 10^6 ARN8 cells in a solution of PBS:Matrigel (volume ratio 3:1). Treatment was initiated when tumors reached ~50 mm^3. The maximum tolerated dose for this combination of drugs was previously determined for the strain we used. The endpoint of the experiment was determined by the tumor size ([…]) weight loss, and general condition of the mice according to The Norwegian Animal Research Authority.

U2OS cells [2] = assay: PI flow cytometry, sub-G1 cells, U2OS; assay type: cell-based; conditions: DMSO 72 h + 48 h, 2 μM nutlin-3a last 48 h
Procedure: as §1

U2OS cells [3] = assay: Annexin V/PI apoptosis flow cytometry; assay type: cell-based; conditions: HZ05 72 h, washed, nutlin-3a 48 h
Procedure: Fig. 7 HZ05 increases p53 levels in S-phase cells. a U2OS cells were treated with DMSO (vehicle) or HZ05 (1 μM) for 72 h. The upper left panel is a representative dot plot showing the gating strategy for cells expressing high p53 levels (blue: HZ05 treated and red: DMSO treated). […] A representative histogram of the fluorescence intensity of FITC-p53 in S-phase cells is shown in the lower right panel. Bar graphs show the average of three independent experiments. Unpaired t-test was employed to assess statistical significance using GraphPad Prism version 7 (****p < 0.0001 and ***p < 0.001). b U2OS cells were pretreated with HZ05 for 72 h, washed with medium containing DMSO or nutlin-3a, and then provided with fresh medium containing DMSO or nutlin-3a. After an additional 48 h, Annexin V and PI staining was analyzed by flow cytometry. The average of two independent experiments ± SD is shown. c Hypothetical model describing the combination of DHODH inhibition with mdm2 antagonists. […] Inhibition of p53 degradation in the form of an mdm2 antagonist leads to death of cells in S-phase
For the detection of apoptotic cells, the Annexin V-FITC Apoptosis detection kit (Ab#14085) was used with analysis conducted using FlowJo software V10.2.

## COc1ccc(C2=N[C@@H](c3ccc(Cl)cc3)[C@@H](c3ccc(Cl)cc3)N2C(=O)N2CCNC(=O)C2)c(OC(C)C)c1 [nutlin-3a, reference compound]
ARN8 cells; HZ05 0 nM + nutlin-3a 5 µM
  DMSO control subtracted effect (cells in sub-G1): 0.05
ARN8 cells; HZ05 0 nM + nutlin-3a 10 µM
  DMSO control subtracted effect (cells in sub-G1): 0.07
ARN8 cells; HZ05 0 nM + nutlin-3a 15 µM
  DMSO control subtracted effect (cells in sub-G1): 0.12
ARN8 cells; HZ05 0 nM + nutlin-3a […]
  DMSO control subtracted effect (cells in sub-G1): 0.10
ARN8 cells; nutlin-3a 1 μM
  sub-G1 cells: 0.8%
ARN8 cells; nutlin-3a 2.5 μM
  sub-G1 cells: 1.59%
ARN8 cells; nutlin-3a 5 μM
  sub-G1 cells: 3.52%
HNDF cells
  sub-G1 cells: 1.2%
[1]
  half-life on co-administration with (R)-HZ05: not prolonged
MV411 cells
  sub-G1 cells: 37.2%
ARN8 xenograft
  xenograft tumor growth, single agent: ineffective
U2OS cells [2]
  sub-G1 cells: 1.1%
U2OS cells [3]
  effect of nutlin-3a after HZ05 pre-treatment and wash-out: triggered cell death
